The NIST ThermoML archive (doi:10.1016/j.fluid.2018.03.018)
± gives the expanded uncertainty stated by the source.

Assay: xn = mol fraction of the nth substance listed
Conditions: 101 kPa, Liquid, Vibrating tube method

C[P+](c1ccccc1)(c1ccccc1)c1ccccc1.[Br-] [methyltriphenylphosphonium bromide] + OCC(O)CO
mass density (298.15 K, x1 = 0.25): 1295.8 ± 1.1 kg/m3
mass density (303.15 K, x1 = 0.25): 1292.4 ± 1.1 kg/m3
mass density (308.15 K, x1 = 0.25): 1288.9 ± 1.1 kg/m3
mass density (313.15 K, x1 = 0.25): 1285.3 ± 1.1 kg/m3
mass density (318.15 K, x1 = 0.25): 1281.7 ± 1.1 kg/m3
mass density (323.15 K, x1 = 0.25): 1278.1 ± 1.1 kg/m3

C[P+](c1ccccc1)(c1ccccc1)c1ccccc1.[Br-] [methyltriphenylphosphonium bromide] + OCCO
mass density (298.15 K, x1 = 0.25): 1249.1 ± 1.1 kg/m3
mass density (303.15 K, x1 = 0.25): 1245.7 ± 1.1 kg/m3
mass density (308.15 K, x1 = 0.25): 1242.2 ± 1.1 kg/m3
mass density (313.15 K, x1 = 0.25): 1238.8 ± 1.1 kg/m3
mass density (318.15 K, x1 = 0.25): 1235.4 ± 1.1 kg/m3
mass density (323.15 K, x1 = 0.25): 1231.9 ± 1.1 kg/m3

CC[N+](CC)(CC)CC.[Cl-] [tetraethylammonium chloride] + OCCO
mass density (293.15 K, x1 = 0.3333): 1052.3 ± 1 kg/m3
mass density (298.15 K, x1 = 0.3333): 1049.4 ± 1 kg/m3
mass density (303.15 K, x1 = 0.3333): 1046.6 ± 1 kg/m3
mass density (308.15 K, x1 = 0.3333): 1043.7 ± 1 kg/m3
mass density (313.15 K, x1 = 0.3333): 1040.9 ± 1 kg/m3
mass density (318.15 K, x1 = 0.3333): 1038.1 ± 1 kg/m3
mass density (323.15 K, x1 = 0.3333): 1035.3 ± 1 kg/m3
mass density (328.15 K, x1 = 0.3333): 1032.5 ± 1 kg/m3
mass density (333.15 K, x1 = 0.3333): 1029.7 ± 1 kg/m3
mass density (338.15 K, x1 = 0.3333): 1026.9 ± 1 kg/m3
mass density (343.15 K, x1 = 0.3333): 1024.1 ± 1 kg/m3

CC[N+](CC)(CC)CC.[Cl-] [tetraethylammonium chloride] + OCC(O)CO
mass density (293.15 K, x1 = 0.3333): 1124 ± 1 kg/m3
mass density (298.15 K, x1 = 0.3333): 1121 ± 1 kg/m3
mass density (303.15 K, x1 = 0.3333): 1118.1 ± 1 kg/m3
mass density (308.15 K, x1 = 0.3333): 1115.1 ± 1 kg/m3
mass density (313.15 K, x1 = 0.3333): 1112.3 ± 1 kg/m3
mass density (318.15 K, x1 = 0.3333): 1109.4 ± 1 kg/m3
mass density (323.15 K, x1 = 0.3333): 1106.6 ± 1 kg/m3
mass density (328.15 K, x1 = 0.3333): 1103.8 ± 1 kg/m3
mass density (333.15 K, x1 = 0.3333): 1101 ± 1 kg/m3
mass density (338.15 K, x1 = 0.3333): 1098.2 ± 1 kg/m3
mass density (343.15 K, x1 = 0.3333): 1095.4 ± 1 kg/m3
